Test results taken from patent publication US9856279B2 (AGIOS PHARMACEUTICALS, INC, priority 2011, dated 2018).

Tests used:
IDH1 R132H = IDH1 R132H (Homo sapiens, UniProt O75874, R132H); assay: Assay for IDH1 R132H inhibitors (NADPH/aKG, resazurin detection); format: biochemical; conditions: enzyme assay of Example 12; read-out: IDH1R132H IC50
Method in brief: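 Read-out is resorufin fluorescence (Ex544/Em590) 5 min after adding a 30 μM resazurin detection mix. Before that, mutant enzyme (0.2 μg/ml in its mix) ran 50 min at room temperature with compound, 8 uM NADPH and 2 mM aKG (mix levels) in Tris pH 7.5 with NaCl, MgCl2, BSA.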

HT1080 cells = assay: Cellular assay for IDH1m inhibitors: inhibition of 2-HG production (LC-MS, 48 hours) in HT1080 cells; format: cell-based; conditions: Homo sapiens, HT-1080; inhibition of 2-HG production, HT1080 cells; read-out: HT1080 IC50
Method in brief: (§1)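 Cells were seeded at 5000/well in DMEM with 10% FBS, incubated overnight, then treated with compound (0.2% DMSO final) for 48 h at 37° C. Medium 2-HG was quantified by LC-MS. IC50 is the concentration reducing 2-HG by 50% versus DMSO control, and CellTiter-Glo viability was read at 72 h.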

U87MG cells = assay: Cellular assay for IDH1m inhibitors: inhibition of 2-HG production (LC-MS, 48 hours) in U87MG cells; format: cell-based; conditions: Homo sapiens, U-87 MG, inhibition of 2-HG production, U87R132H cells; read-out: U87R132H IC50
Method in brief: as §1

Chain of IDH1 R132H (O75874 whole entry R132H): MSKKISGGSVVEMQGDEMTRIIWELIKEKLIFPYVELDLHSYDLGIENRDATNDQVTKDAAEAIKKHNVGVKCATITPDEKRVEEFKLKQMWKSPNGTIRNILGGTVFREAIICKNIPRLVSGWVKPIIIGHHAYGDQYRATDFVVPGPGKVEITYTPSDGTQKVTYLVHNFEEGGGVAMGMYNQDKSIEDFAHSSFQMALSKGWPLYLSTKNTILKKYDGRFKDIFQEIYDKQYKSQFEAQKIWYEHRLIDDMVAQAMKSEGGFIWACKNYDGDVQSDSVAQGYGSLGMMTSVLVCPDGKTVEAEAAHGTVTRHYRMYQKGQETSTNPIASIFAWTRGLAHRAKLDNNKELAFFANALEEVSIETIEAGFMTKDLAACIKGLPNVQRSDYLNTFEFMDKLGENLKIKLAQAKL

SMILES	IC50 (IDH1 R132H)	IC50 (HT1080 cells)	IC50 (U87MG cells)
C=CC(=O)Nc1cccc(-c2cc(C#N)c(N3CCN(C(=O)C4CC4)[C@H](C4CC4)C3)nc2C2CC2)c1 [Compound 454, (R)—N-(3-(5-cyano-6-(4-(cyclopropanecarbonyl)-3-cyclopropylpiperazin-1-yl)-2-cyclopropylpyridin-3-yl)phenyl)acrylamide]	< 500 nM	< 500 nM	< 500 nM
N#Cc1cc(-c2cccc3cnccc23)c(C2CC2)nc1N1CCN(C(=O)C2CC2)[C@H](C2CC2)C1 [Compound 391, (R)-2-(4-(cyclopropanecarbonyl)-3-cyclopropylpiperazin-1-yl)-6-cyclopropyl-5-(isoquinolin-5-yl)nicotinonitrile]	< 500 nM	500 to 1000 nM	500 to 1000 nM
C=Cc1cc(-c2c(C3CC3)nc(N3CCN(C(=O)CCO)[C@H](C4CC4)C3)c(C#N)c2C)ccn1 [Compound 589, (R)-2-cyclopropyl-6-(3-cyclopropyl-4-(3-hydroxypropanoyl)piperazin-1-yl)-4-methyl-2′-vinyl-3,4′-bipyridine-5-carbonitrile]	< 500 nM	< 500 nM	< 500 nM
COCCC(=O)N1CCN(c2nc(C3CC3)c(OCc3cccc(C(=O)OC)c3)cc2C#N)C[C@H]1C [Compound 292, (R)-methyl 3-((5-cyano-2-cyclopropyl-6-(4-(3-methoxypropanoyl)-3-methylpiperazin-1-yl)pyridin-3-yloxy)methyl)benzoate]	< 500 nM	500 to 1000 nM	1000 to 10000 nM
C/C=C/C(=O)Nc1cccc(COc2cc(C#N)c(N3CCN(C(=O)CCOC)[C@H](C)C3)nc2C2CC2)c1 [Compound 400, (R,E)-N-(3-((5-cyano-2-cyclopropyl-6-(4-(3-methoxypropanoyl)-3-methylpiperazin-1-yl)pyridin-3-yloxy)methyl)phenyl)but-2-enamide]	500 to 1000 nM	1000 to 10000 nM	1000 to 10000 nM
C=Cc1cc(-c2cc(C#N)c(N3CCN(C(=O)C[C@H]4CCO4)[C@H](C4CC4)C3)nc2C2CC2)c2cnn(C)c2n1 [Compound 778, 6-cyclopropyl-2-((R)-3-cyclopropyl-4-(2-((R)-oxetan-2-yl)acetyl)piperazin-1-yl)-5-(1-methyl-6-vinyl-1H-pyrazolo[3,4-b]pyridin-4-yl)nicotinonitrile]	< 500 nM	< 500 nM	< 500 nM
COCCC(=O)N1CCN(c2nc(C3CC3)c(-c3ccc(OC)c(F)c3)c(C)c2C#N)C[C@H]1C [Compound 323, (R)-6-cyclopropyl-5-(3-fluoro-4-methoxy-phenyl)-2-[4-(3-methoxy-propionyl)-3-methyl-piperazin-1-yl]-4-methyl-nicotinonitrile]	< 500 nM	500 to 1000 nM	500 to 1000 nM
C=Cc1ccc2c(-c3cc(C#N)c(N4CCN(C(=O)CCO)[C@H](C5CC5)C4)nc3C3CC3)cncc2n1 [Compound 735, (R)-6-cyclopropyl-2-(3-cyclopropyl-4-(3-hydroxypropanoyl)piperazin-1-yl)-5-(2-vinyl-1,7-naphthyridin-5-yl)nicotinonitrile]	< 500 nM	< 500 nM	< 500 nM
COCCC(=O)N1CCN(c2nc(C3CC3)c(-c3ccc4[nH]ncc4c3)cc2C#N)C[C@H]1C [Compound 295, (R)-6-cyclopropyl-5-(1H-indazol-5-yl)-2-(4-(3-methoxypropanoyl)-3-methylpiperazin-1-yl)nicotinonitrile]	< 500 nM	500 to 1000 nM	500 to 1000 nM
C#CC(=O)N(C)c1cccc(-c2cc(C#N)c(N3CCN(C(=O)CCOC)[C@H](C)C3)nc2C2CC2)c1 [Compound 456]	< 500 nM	< 500 nM	< 500 nM
C=CC(=O)N1CCC=C(c2c(C3CC3)nc(N3CCN(C(=O)CCO)[C@H](C(C)C)C3)c(C#N)c2C)C1 [Compound 762, (R)-1′-acryloyl-2-cyclopropyl-6-(4-(3-hydroxypropanoyl)-3-isopropylpiperazin-1-yl)-4-methyl-1′,2′,5′,6′-tetrahydro-[3,3′-bipyridine]-5-carbonitrile]	< 500 nM	< 500 nM	< 500 nM
COCCC(=O)N1CCN(c2nc(C3CC3)c(-c3c(C)noc3C)cc2C#N)C[C@H]1C [Compound 345, (R)-6-cyclopropyl-5-(3,5-dimethyl-isoxazol-4-yl)-2-[4-(3-methoxy-propionyl)-3-methyl-piperazin-1-yl]-nicotinonitrile]	< 500 nM	1000 to 10000 nM	500 to 1000 nM
C=Cc1cc(-c2cc(C#N)c(N3CCN(C(=O)CCCOC)[C@H](C4CC4)C3)nc2C2CC2)ccn1 [Compound 747, (R)-2-cyclopropyl-6-(3-cyclopropyl-4-(4-methoxybutanoyl)piperazin-1-yl)-2′-vinyl-3,4′-bipyridine-5-carbonitrile]	< 500 nM	< 500 nM	< 500 nM
COCCC(=O)N1CCN(c2nc(C3CC3)c(-c3cccc(N)c3)cc2C#N)C[C@H]1C [Compound 285, (R)-5-(3-aminophenyl)-6-cyclopropyl-2-(4-(3-methoxypropanoyl)-3-methylpiperazin-1-yl)nicotinonitrile]	< 500 nM	500 to 1000 nM	1000 to 10000 nM
C=Cc1cc(-c2cc(C#N)c(N3CCN(C(=O)CCO)[C@H](C4CC4)C3)nc2C2CC2)ncn1 [Compound 663, (R)-6-cyclopropyl-2-(3-cyclopropyl-4-(3-hydroxypropanoyl)piperazin-1-yl)-5-(6-vinylpyrimidin-4-yl)nicotinonitrile]	< 500 nM	< 500 nM	< 500 nM
C=Cc1cc(-c2cc(C#N)c(N3CCN(C(=O)CCO)[C@H](C(C)C)C3)nc2C2CC2)c2cccnc2n1 [Compound 629, (R)-6-cyclopropyl-2-(4-(3-hydroxypropanoyl)-3-isopropylpiperazin-1-yl)-5-(2-vinyl-1,8-naphthyridin-4-yl)nicotinonitrile]	< 500 nM	< 500 nM	< 500 nM
COCCC(=O)N1CCN(c2nc(C3CC3)c(-c3cncc4ccccc34)c(C)c2C#N)C[C@H]1C [Compound 408, 6-cyclopropyl-5-(isoquinolin-4-yl)-2-((R)-4-(3-methoxypropanoyl)-3-methylpiperazin-1-yl)-4-methylnicotinonitrile]	< 500 nM	500 to 1000 nM	< 500 nM
C=Cc1cc(-c2cc(C#N)c(N3CCN(C(=O)CCOC)[C@H](C)C3)nc2C2CC2)ccn1 [Compound 390, (R)-2-cyclopropyl-6-(4-(3-methoxypropanoyl)-3-methylpiperazin-1-yl)-2′-vinyl-3,4′-bipyridine-5-carbonitrile]	< 500 nM	< 500 nM	< 500 nM
C=Cc1ncc2c(-c3cc(C#N)c(N4CCN(C(=O)CCOC)[C@H](C5CC5)C4)nc3C3CC3)cccc2n1 [Compound 635, (R)-6-cyclopropyl-2-(3-cyclopropyl-4-(3-methoxypropanoyl)piperazin-1-yl)-5-(2-vinylquinazolin-5-yl)nicotinonitrile]	< 500 nM	< 500 nM	< 500 nM
C=Cc1cc(Nc2cc(C#N)c(N3CCN(C(=O)CCO)[C@H](C(C)C)C3)nc2C2CC2)ccn1 [Compound 754, (R)-6-cyclopropyl-2-(4-(3-hydroxypropanoyl)-3-isopropylpiperazin-1-yl)-5-(2-vinylpyridin-4-ylamino)nicotinonitrile]	< 500 nM	< 500 nM	< 500 nM
